In patent US11708348B2, “Protease inhibitors for treatment of coronavirus infections” (The Scripps Research Institute, priority 2021, dated 2023):
Where two headings read alike, the source gives them in different places.

System: SARS-CoV-2 strain USA-WA1/2020
Assay: microbe, parasite or virus in culture
Format: cell-based
Conditions: Severe acute respiratory syndrome coronavirus 2, HeLa-ACE2, 24 h, HeLa-ACE2 cells, SARS-CoV-2 infection, 24 h, read-out: EC50, uM (Hela)

| Structure (SMILES) | EC50 [µM] | EC50 (given as bound) [µM] |
| --- | --- | --- |
| CC1(C)[C@@H]2[C@@H](C(=O)N[C@@H](C[C@@H]3CCNC3=O)C(=O)COC(F)(F)F)N(C(=O)C(=O)Nc3ccccc3F)C[C@@H]21 [Compound 489, (1R,2S,5S)-3-(2-((2-fluorophenyl)amino)-2-oxoacetyl)-6,6-dimethyl-N-((S)-3-oxo-1-((S)-2-oxopyrrolidin-3-yl)-4-(trifluoromethoxy)butan-2-yl)-3-azabicyclo[3.1.0]-hexane-2-carboxamide] | < 0.05 | – |
| CC(C)(F)c1cc(C(=O)N[C@@H](CC2CC2)C(=O)N[C@@H](C[C@@H]2CCNC2=O)C(=O)COC(F)(F)F)no1 [Compound 490, N-((S)-3-cyclopropyl-1-oxo-1-(((S)-3-oxo-1-((S)-2-oxopyrrolidin-3-yl)-4-(trifluoromethoxy)butan-2-yl)amino)propan-2-yl)-5-(2-fluoropropan-2-yl)isoxazole-3-carboxamide] | < 0.05 | – |
| CC(C)(F)c1cc(C(=O)N2C[C@@H]3CCC[C@@H]3[C@H]2C(=O)N[C@@H](C[C@@H]2CCNC2=O)C(=O)COC(F)(F)F)no1 [Compound 491, (1S,3aR,6aS)-2-(5-(2-fluoropropan-2-yl)isoxazole-3-carbonyl)-N-((S)-3-oxo-1-((S)-2-oxopyrrolidin-3-yl)-4-(trifluoromethoxy)butan-2-yl)octahydrocyclo-penta[c]pyrrole-1-carboxamide] | < 0.05 | – |
| CC1(C)[C@@H]2[C@@H](C(=O)N[C@H](C[C@@H]3CCNC3=O)C(=O)COC(F)(F)F)N(C(=O)c3cc(C(F)(F)F)no3)C[C@@H]21 [Compound 492, (1R,2S,5S)-6,6-dimethyl-N-((R)-3-oxo-1-((S)-2-oxopyrrolidin-3-yl)-4-(trifluoromethoxy)butan-2-yl)-3-(3-(trifluoromethyl)-isoxazole-5-carbonyl)-3-azabicyclo[3.1.0]-hexane-2-carboxamide] | 0.05 to 0.2 | – |
| CC(C)(C)NC(=O)C(=O)N1C[C@@H]2C[C@@H]2[C@H]1C(=O)N[C@@H](C[C@@H]1CCNC1=O)C(=O)COC(F)(F)F [Compound 493, (1S,2S,5R)-3-(2-(tert-butylamino)-2-oxoacetyl)-N-((S)-3-oxo-1-((S)-2-oxopyrrolidin-3-yl)-4-(trifluoromethoxy)butan-2-yl)-3-azabicyclo[3.1.0]-hexane-2-carboxamide] | 0.2 to 0.5 | – |
| CC1(NC(=O)C(=O)N2C[C@@H]3CCC[C@@H]3[C@H]2C(=O)N[C@H](C[C@@H]2CCNC2=O)C(=O)COC(F)(F)F)CC1 [Compound 495, (1S,3aR,6aS)-2-(2-((1-methylcyclopropyl)-amino)-2-oxoacetyl)-N-((R)-3-oxo-1-((S)-2-oxopyrrolidin-3-yl)-4-(trifluoromethoxy)butan-2-yl)octahydrocyclo-penta[c]pyrrole-1-carboxamide] | – | > 1 |
| O=C(NC1CC1)C(=O)N1C[C@@H]2CCC[C@@H]2[C@H]1C(=O)N[C@@H](C[C@@H]1CCNC1=O)C(=O)COC(F)(F)F [Compound 497, (1S,3aR,6aS)-2-(2-(cyclopropylamino)-2-oxoacetyl)-N-((S) -3-oxo-1-((S)-2-oxopyrrolidin-3-yl)-4-(trifluoromethoxy)butan-2-yl)octahydrocyclo-penta[c]pyrrole-1-carboxamide] | 0.05 to 0.2 | – |
| CC(C)(C)NC(=O)C(=O)N1[C@H](C(=O)N[C@@H](C[C@@H]2CCNC2=O)C(=O)COC(F)(F)F)C[C@@H]2CCCC[C@@H]21 [Compound 498, (2S,3aS,7aS)-1-(2-(tert-butylamino)-2-oxoacetyl)-N-((S)-3-oxo-1-((S)-2-oxopyrrolidin-3-yl)-4-(trifluoromethoxy)butan-2-yl)octahydro-1H-indole-2-carboxamide] | 0.05 to 0.2 | – |
| CC(C)(F)c1cc(C(=O)NC(CC2CCOCC2)C(=O)N[C@@H](C[C@@H]2CCNC2=O)C(=O)COC(F)(F)F)no1 (stereo partly drawn) [Compound 499, 5-(2-fluoropropan-2-yl)-N-(l-oxo-1-(((S)-3-oxo-1-((S)-2-oxopyrrolidin-3-yl)-4-(trifluoromethoxy)butan-2-yl)amino)-3-(tetrahydro-2H-pyran-4-yl)propan-2-yl)isoxazole-3-carboxamide] | 0.05 to 0.2 | – |
| O=C1NCC[C@H]1C[C@H](NC(=O)[C@@H]1[C@H]2CCC[C@H]2CN1C(=O)c1cc(C(F)F)on1)C(=O)COC(F)(F)F [Compound 500, (1S,3aR,6aS)-2-(5-(difluoromethyl)-isoxazole-3-carbonyl)-N-((S)-3-oxo-1-((S)-2-oxopyrrolidin-3-yl)-4-(trifluoromethoxy)butan-2-yl)octahydrocyclo-penta[c]pyrrole-1-carboxamide] | < 0.05 | – |
| CC(C)(F)c1cc(C(=O)N2C=C3C[C@@H]3[C@H]2C(=O)N[C@@H](C[C@@H]2CCNC2=O)C(=O)COC(F)(F)F)no1 [Compound 501, (1S,2S)-3-(5-(2-fluoropropan-2-yl)isoxazole-3-carbonyl)-N-((S)-3-oxo-1-((S)-2-oxopyrrolidin-3-yl)-4-(trifluoromethoxy)butan-2-yl)-3-azabicyclo[3.1.0]hex-4-ene-2-carboxamide] | – | > 1 |
| CC(C)(C)NC(=O)C(=O)N1CC2(CC2)C[C@H]1C(=O)N[C@@H](C[C@@H]1CCNC1=O)C(=O)COC(F)(F)F [Compound 502, (S)-5-(2-(tert-butylamino)-2-oxoacetyl)-N-((S)-3-oxo-1-((S)-2-oxopyrrolidin-3-yl)-4-(trifluoromethoxy)butan-2-yl)-5-azaspiro[2.4]-heptane-6-carboxamide] | < 0.05 | – |
| CC(C)(C)NC(=O)C(=O)N[C@@H](CC1CC1)C(=O)N[C@@H](C[C@@H]1CCNC1=O)C(=O)COC(F)(F)F [Compound 503, N1-(tert-butyl)-N2-((S)-3-cyclopropyl-1-oxo-1-(((S)-3-oxo-1-((S)-2-oxopyrrolidin-3-yl)-4-(trifluoromethoxy)butan-2-yl)amino)propan-2-yl)oxalamide] | < 0.05 | – |
| Cc1ccccc1NC(=O)C(=O)N[C@@H](CC(C)(C)C)C(=O)N[C@@H](C[C@@H]1CCNC1=O)C(=O)COC(F)(F)F [Compound 504, N1-((S)-4,4-dimethyl-1-oxo-1-(((S)-3-oxo-1-((S)-2-oxopyrrolidin-3-yl)-4-(trifluoromethoxy)butan-2-yl)amino)pentan-2-yl)-N2-(o-tolyl)oxalamide] | < 0.05 | – |
| CC(C)(C)C[C@H](NC(=O)C(=O)NCC(F)(F)F)C(=O)N[C@@H](C[C@@H]1CCNC1=O)C(=O)COC(F)(F)F [Compound 505, N1-((S)-4,4-dimethyl-1-oxo-1-(((S)-3-oxo-1-((S)-2-oxopyrrolidin-3-yl)-4-(trifluoromethoxy)butan-2-yl)amino)pentan-2-yl)-N2-(2,2,2-trifluoroethyl)-oxalamide] | < 0.05 | – |
| Cc1ccccc1NC(=O)C(=O)N[C@@H](CC1CC1)C(=O)N[C@@H](C[C@@H]1CCNC1=O)C(=O)COC(F)(F)F [Compound 507, N1-((S)-3-cyclopropyl-1-oxo-1-(((S)-3-oxo-1-((S)-2-oxopyrrolidin-3-yl)-4-(trifluoromethoxy)butan-2-yl)amino)propan-2-yl)-N2-(o-tolyl)oxalamide] | < 0.05 | – |
| CC(C)(C)NC(=O)C(=O)N1CC2(CC1C(=O)N[C@@H](C[C@@H]1CCNC1=O)C(=O)COC(F)(F)F)CC(F)(F)C2 (stereo partly drawn) [Compound 508, 6-(2-(tert-butylamino)-2-oxoacetyl)-2,2-difluoro-N-((S)-3-oxo-1-((S)-2-oxopyrrolidin-3-yl)-4-(trifluoromethoxy)butan-2-yl)-6-azaspiro[3.4]octane-7-carboxamide] | 0.05 to 0.2 | – |
| O=C(N[C@@H](CC1CC1)C(=O)N[C@@H](C[C@@H]1CCNC1=O)C(=O)COC(F)(F)F)C(=O)NC12CC(F)(C1)C2 [Compound 509, N1-((S)-3-cyclopropyl-1-oxo-1-(((S)-3-oxo-1-((S)-2-oxopyrrolidin-3-yl)-4-(trifluoromethoxy)butan-2-yl)amino)propan-2-yl)-N2-(3-fluorobicyclo[1.1.1]-pentan-1-yl)oxalamide] | < 0.05 | – |
| O=C(NC(CC1CCOCC1)C(=O)N[C@@H](C[C@@H]1CCNC1=O)C(=O)COC(F)(F)F)C(=O)NC12CC(F)(C1)C2 (stereo partly drawn) [Compound 510, N1-(3-fluorobicyclo-[1.1.1]pentan-1-yl)-N2-(1-oxo-1-(((S)-3-oxo-1-((S)-2-oxopyrrolidin-3-yl)-4-(trifluoromethoxy)butan-2-yl)amino)-3-(tetrahydro-2H-pyran-4-yl)propan-2-yl)oxalamide] | 0.2 to 0.5 | – |
| CC(C)(C)NC(=O)C(=O)N1CC2(CCC2)CC1C(=O)N[C@@H](C[C@@H]1CCNC1=O)C(=O)COC(F)(F)F (stereo partly drawn) [Compound 511, 6-(2-(tert-butylamino)-2-oxoacetyl)-N-((S)-3-oxo-1-((S)-2-oxopyrrolidin-3-yl)-4-(trifluoromethoxy)butan-2-yl)-6-azaspiro[3.4]-octane-7-carboxamide] | 0.05 to 0.2 | – |
| O=C(N[C@@H](CC1CC1)C(=O)N[C@@H](C[C@@H]1CCNC1=O)C(=O)COC(F)(F)F)C(=O)NC1(C(F)(F)F)CC1 [Compound 512, N1-((S)-3-cyclopropyl-1-oxo-1-(((S)-3-oxo-1-((S)-2-oxopyrrolidin-3-yl)-4-(trifluoromethoxy)butan-2-yl)amino)propan-2-yl)-N2-(1-(trifluoromethyl)-cyclopropyl)-oxalamide] | 0.05 to 0.2 | – |
| Cc1ccccc1NC(=O)C(=O)N1C[C@@H]2CCC[C@@H]2[C@H]1C(=O)N[C@@H](C[C@@H]1CCNC1=O)C(=O)COC(F)(F)F [Compound 513, (1S,3aR,6aS)-N-((S)-3-oxo-1-((S)-2-oxopyrrolidin-3-yl)-4-(trifluoromethoxy)butan-2-yl)-2-(2-oxo-2-(o-tolylamino)acetyl)-octahydrocyclo-penta[c]pyrrole-1-carboxamide] | < 0.05 | – |
| CC(C)(C)NC(=O)C(=O)N1CC2(COC2)C[C@@H]1C(=O)N[C@@H](C[C@@H]1CCNC1=O)C(=O)COC(F)(F)F [Compound 514, (R)-6-(2-(tert-butylamino)-2-oxoacetyl)-N-((S)-3-oxo-1-((S)-2-oxopyrrolidin-3-yl)-4-(trifluoromethoxy)butan-2-yl)-2-oxa-6-azaspiro[3.4]octane-7-carboxamide] | 0.5 to 1 | – |
